Results taken from patent publication US20260152501A1, “CYCLIN MODULATOR” (EUBULUS BIOTHERAPEUTICS (HONG KONG) LIMITED, priority 2022, published 2026).

Assays:
Cyclin K = assay: Immunohistochemistry (IHC) staining of Cyclin K in HepG2 cells; assay type: cell-based; conditions: incubated with compound 2 hours, CCNK antibody
Experimental: Appropriate amount of compounds were added to the cultured cells. The cells were incubated in a tissue culture incubator at 37° C. for 2 hours.
After washing the cultured cells twice with PBS, 100 μL 10% neutral buffered formalin were added and the cells were fixed for 20 minutes.
After washing 3 times with PBS, immunohistochemical staining was performed using CCNK antibody and general two-step detection kit (mouse/rabbit enhanced polymer detection system, PV-9000, Zsbio Inc, Beijing).
Specifically, 100 μL of endogenous peroxidase blocker in the kit was added, cells were incubated at room temperature for 10 minutes; rinsed with PBS buffer for 3 minutes×3 times.
100 μL CCNK antibody 1:5000 dilution was added, and the cells were incubated at 37° C. for 60 minutes; rinsed with PBS buffer for 3 minutes×3 times.
100 μL reaction enhancer was added, and the cells were incubated at 37° C. for 20 minutes; rinsed with PBS buffer for 3 minutes×3 times.
100 μL enhanced enzyme-labeled goat anti-mouse/rabbit IgG polymer was added, and the cells were incubated at 37° C. for 20 minutes; rinsed with PBS buffer for 3 minutes×3 times.
The cells were placed in 75% ethanol, soaked for 3 minutes×2 times; placed in 95% ethanol, soaked for 3 minutes×2 times; after removing excess liquid, placed in anhydrous ethanol, soaked for 3 minutes×3 times; after removing excess liquid, air dried, observed under a microscope and taken pictures after sealing.

HepG2 cells = assay: Antiproliferative effect on HepG2 cells; assay type: cell-based; conditions: Homo sapiens
Experimental: Reagents: RPMI-1640 medium, McCoy's 5A medium, IMDM medium, MEM medium, L-15 medium, fetal bovine serum, Penicillin-Streptomycin double antibody, trypsin, etc., 2-mercaptoethanol, NEAA, pyruvate, etc.
The test cells were cultured in conventional ways, and the cells should be passed for at least 2 generations before plating.
All cells were subjected to IC50 test for corresponding samples.
The fluorescence intensity of each well was detected using the Alarm blue method, and EC50 was calculated.
IC50 was calculated according to the following formula:
[formula] • wherein, Min, Max and Slope represent the minimum, maximum and slope respectively.

How did the “Cyclin K IHC data of HepG2 cells” value (Cyclin K) turn out when `CC(C)n1cnc2c(NCc3ccc(-c4ccccc4)cc3)nc(NC3CCNCC3)nc21` [UB-016, N6-([1,1′-biphenyl]-4-yl-methyl)-9-isopropyl-N2-(Piperidin-4-yl)-9H-purin-2,6-diamine] was run?
The value was “C (93 nM < C <= 278 nM)”.

With `CC(C)n1cnc2c(NCc3ccc(-c4ccccc4)cc3)nc(N3CCNC[C@H]3C)nc21` [UB-020, (R)-N-([1,1′-biphenyl]-4-ylmethyl)-9-isopropyl-2-(2-methylpiperazin-1-yl)-9H-purin-6-amine] as the compound, how does the “Cyclin K IHC data of HepG2 cells” value (Cyclin K) read?
Its value is “B (31 nM < B <= 93 nM)”.

And the IC50 (HepG2 cells)?
Its IC50 is < 50 nM.

With `CC(C)n1cnc2c(NCc3ccc(-c4ccccc4)cc3)nc(N3CCNC[C@@H]3C)nc21` [UB-021, (S)-N-([1,1′-biphenyl]-4-ylmethyl)-9-isopropyl-2-(2-methylpiperazin-1-yl)-9H-purin-6-amine] as the compound, how does the “Cyclin K IHC data of HepG2 cells” value (Cyclin K) read?
Its value is “C (93 nM < C <= 278 nM)”.

And the IC50 (HepG2 cells)?
Its IC50 is 50 to 100 nM.

What does the source list for `CC(C)n1cnc2c(NCc3ccc(-c4ccccc4)cc3)nc(N3CCNC[C@H]3CO)nc21` [UB-022, (S)-(1-(6-(([1,1′-biphenyl]-4-ylmethyl)amino)-9-isopropyl-9H-purin-2-yl)piperazin-2-yl) methanol]?
Cyclin K IHC data of HepG2 cells (Cyclin K): A (A <= 31 nM); IC50 (HepG2 cells): < 50 nM

Which “Cyclin K IHC data of HepG2 cells” value (Cyclin K) does the source give for `CC(C)n1cnc2c(NCc3ccc(-c4ccccc4)cc3)nc(N3CCNC[C@@H]3CO)nc21` [UB-023, (R)-(1-(6-(([1,1′-biphenyl]-4-ylmethyl)amino)-9-isopropyl-9H-purin-2-yl)piperazin-2-yl) methanol] here?
The value was “C (93 nM < C <= 278 nM)”.

What about the IC50 (HepG2 cells) of the same compound?
Its IC50 is 50 to 100 nM.

How did the “Cyclin K IHC data of HepG2 cells” value (Cyclin K) turn out when `CC(C)n1cnc2c(NCc3ccc(-c4ccccc4)cc3)nc(N3CCNC[C@H]3CCO)nc21` [UB-024, (R)-2-(1-(6-(([1,1′-biphenyl]-4-ylmethyl)amino)-9-isopropyl-9H-purin-2-yl)piperazin-2-yl) ethan-1-ol] was run?
The value was “A (A <= 31 nM)”.

For `CC(C)n1cnc2c(NCc3ccc(-c4ccccc4)cc3)nc(N3CCNC[C@@H]3CCO)nc21` [UB-025, (S)-2-(1-(6-(([1,1′-biphenyl]-4-ylmethyl)amino)-9-isopropyl-9H-purin-2-yl)piperazin-2-yl) ethan-1-ol], which “Cyclin K IHC data of HepG2 cells” value (Cyclin K) is on record?
The value was “A (A <= 31 nM)”.

Which “Cyclin K IHC data of HepG2 cells” value (Cyclin K) does the source give for `CC(C)n1cnc2c(NCc3ccc(-c4ccccc4)cc3)nc(N3CCN[C@@H](C)C3)nc21` [UB-026, (S)-N-([1,1′-biphenyl]-4-ylmethyl)-9-isopropyl-2-(3-methylpiperazin-1-yl)-9H-purin-6-amine] here?
The value was “B (31 nM < B <= 93 nM)”.

And the IC50 (HepG2 cells)?
Its IC50 is < 50 nM.

For `CC(C)n1cnc2c(NCc3ccc(-c4ccccc4)cc3)nc(N3CCN[C@H](C)C3)nc21` [UB-027, (R)-N-([1,1′-biphenyl]-4-ylmethyl)-9-isopropyl-2-(3-methylpiperazin-1-yl)-9H-purin-6-amine], which “Cyclin K IHC data of HepG2 cells” value (Cyclin K) is on record?
Its value is “A (A <= 31 nM)”.

And the IC50 (HepG2 cells)?
Its IC50 is < 50 nM.

How did the “Cyclin K IHC data of HepG2 cells” value (Cyclin K) turn out when `CC(C)n1cnc2c(NCc3ccc(-c4ccccc4)cc3)nc(N3CCN[C@@H](CO)C3)nc21` [UB-028, (R)-(4-(6-(([1,1′-biphenyl]-4-ylmethyl)amino)-9-isopropyl-9H-purin-2-yl)piperazin-2-yl) methanol] was run?
The value was “A (A <= 31 nM)”.

Which “Cyclin K IHC data of HepG2 cells” value (Cyclin K) does the source give for `CC(C)n1cnc2c(NCc3ccc(-c4ccccc4)cc3)nc(N3CCN[C@H](CO)C3)nc21` [UB-029, (S)-(4-(6-(([1,1′-biphenyl]-4-ylmethyl)amino)-9-isopropyl-9H-purin-2-yl)piperazin-2-yl) methanol] here?
The value was “B (31 nM < B <= 93 nM)”.

Which “Cyclin K IHC data of HepG2 cells” value (Cyclin K) does the source give for `CC(C)n1cnc2c(NCc3ccc(-c4ccccc4)cc3)nc(N3CCN[C@@H](CCO)C3)nc21` [UB-030, (S)-2-(4-(6-(([1,1′-biphenyl]-4-ylmethyl)amino)-9-isopropyl-9H-purin-2-yl)piperazin-2-yl) ethan-1-ol] here?
Its value is “B (31 nM < B <= 93 nM)”.

Which “Cyclin K IHC data of HepG2 cells” value (Cyclin K) does the source give for `CC(C)n1cnc2c(NCc3ccc(-c4ccccc4)cc3)nc(N3CCN[C@H](CCO)C3)nc21` [UB-031, (R)-2-(4-(6-(([1,1′-biphenyl]-4-ylmethyl)amino)-9-isopropyl-9H-purin-2-yl)piperazin-2-yl) ethan-1-ol] here?
The value was “B (31 nM < B <= 93 nM)”.

`CC(C)n1cnc2c(NCc3ccc(-c4ccccc4)cc3)nc(N3C[C@@H](C)N[C@H](C)C3)nc21` [UB-032, N-([1,1′-biphenyl]-4-ylmethyl)-2-((3R,5R)-3,5-dimethylpiperazin-1-yl)-9-isopropyl-9H-purin-6-amine] was tested. Which “Cyclin K IHC data of HepG2 cells” value (Cyclin K) did it give?
Its value is “D (D > 278 nM)”.

What does the source list for `CC(C)n1cnc2c(NCc3ccc(-c4ccccc4)cc3)nc(OC[C@@H]3CNCCN3)nc21` [UB-033, (S)-N-([1,l′-biphenyl]-4-ylmethyl)-9-isopropyl-2-(piperazin-2-ylmethoxy)-9H-purin-6-amine]?
Cyclin K IHC data of HepG2 cells (Cyclin K): C (93 nM < C <= 278 nM); IC50 (HepG2 cells): 50 to 100 nM

How did the “Cyclin K IHC data of HepG2 cells” value (Cyclin K) turn out when `CC(C)n1cnc2c(NCc3ccc(-c4ccccc4)cc3)nc(OC[C@H]3CNCCN3)nc21` [UB-034, (R)-N-([1,1′-biphenyl]-4-ylmethyl)-9-isopropyl-2-(piperazin-2-ylmethoxy)-9H-purin-6-amine] was run?
Its value is “C (93 nM < C <= 278 nM)”.

What about the IC50 (HepG2 cells) of the same compound?
The IC50 was 50 to 100 nM.

Which “Cyclin K IHC data of HepG2 cells” value (Cyclin K) does the source give for `CC(C)n1cnc2c(NCc3ccc(-c4ccccc4)cc3)nc(N[C@H]3CCNC3)nc21` [UB-037, (S)-N6-([1,1′-biphenyl]-4-ylmethyl)-9-isopropyl-N2-(pyrrolidin-3-yl)-9H-purin-2,6-diamine] here?
The value was “C (93 nM < C <= 278 nM)”.

And the IC50 (HepG2 cells)?
Its IC50 is < 50 nM.

Which results are given for `CC(C)n1cnc2c(NCc3ccc(-c4ccccc4)cc3)nc(N[C@@H]3CCNC3)nc21` [UB-038, (R)-N6-([1,1′-biphenyl]-4-ylmethyl)-9-isopropyl-N2-(pyrrolidin-3-yl)-9H-purin-2,6-diamine]?
Cyclin K IHC data of HepG2 cells (Cyclin K): C (93 nM < C <= 278 nM); IC50 (HepG2 cells): < 50 nM

With `CC(C)n1cnc2c(NCc3ccc(-c4ccccc4)cc3)nc(N[C@H]3CC[C@@H](N)C3)nc21` [UB-039, N6-([1,1′-biphenyl]-4-yl-methyl)-N2-((1S,3R)-3-aminocyclopentyl)-9-isopropyl-9H-purin-2,6-diamine] as the compound, how does the “Cyclin K IHC data of HepG2 cells” value (Cyclin K) read?
Its value is “C (93 nM < C <= 278 nM)”.

And the IC50 (HepG2 cells)?
The IC50 was 50 to 100 nM.

For `CC(C)n1cnc2c(NCc3ccc(-c4ccccc4)cc3)nc(N[C@H]3CC[C@H](N)C3)nc21` [UB-040, N6-([1,1′-biphenyl]-4-yl-methyl)-N2-((1S,3S)-3-aminocyclopentyl)-9-isopropyl-9H-purin-2,6-diamine], which “Cyclin K IHC data of HepG2 cells” value (Cyclin K) is on record?
Its value is “B (31 nM < B <= 93 nM)”.

And the IC50 (HepG2 cells)?
Its IC50 is < 50 nM.

What does the source list for `CC(C)n1cnc2c(NCc3ccc(-c4ccccc4)cc3)nc(N[C@H]3C[C@@H](N)C3)nc21` [UB-041, N6-([1,1′-biphenyl]-4-yl-methyl)-N2-((1s,3s)-3-aminocyclobutyl)-9-isopropyl-9H-purin-2,6-diamine]?
Cyclin K IHC data of HepG2 cells (Cyclin K): C (93 nM < C <= 278 nM); IC50 (HepG2 cells): < 50 nM

`CC(C)n1cnc2c(NCc3ccc(-c4ccccc4)c(O)c3)nc(N3CCNCC3)nc21` [UB-042] was tested. Which “Cyclin K IHC data of HepG2 cells” value (Cyclin K) did it give?
The value was “B (31 nM < B <= 93 nM)”.

And the IC50 (HepG2 cells)?
The IC50 was < 50 nM.

What does the source list for `CC(C)n1cnc2c(NCc3ccc(-c4ccccc4)c(OCCO)c3)nc(N3CCNCC3)nc21` [UB-043, 2-((4-(((9-isopropyl-2-(piperazin-1-yl)-9H-purin-6-yl)amino)methyl)-[1,1′-biphenyl]-2-yl)oxy)ethanol]?
Cyclin K IHC data of HepG2 cells (Cyclin K): D (D > 278 nM); IC50 (HepG2 cells): 100 to 300 nM

Which results are given for `CCCOc1cc(CNc2nc(N3CCNCC3)nc3c2ncn3C(C)C)ccc1-c1ccccc1` [UB-044, 9-isopropyl-2-(piperazin-1-yl)-N-((2-propoxy-[1,1′-biphenyl]-4-yl)methyl)-9H-purin-6-amine]?
Cyclin K IHC data of HepG2 cells (Cyclin K): D (D > 278 nM); IC50 (HepG2 cells): > 300 nM

How did the “Cyclin K IHC data of HepG2 cells” value (Cyclin K) turn out when `Fc1cccc(-n2cnc3c(NCc4ccc(-c5ccccc5)cc4)nc(N4CCNCC4)nc32)c1` [UB-054, N-([1,1′-biphenyl]-4-ylmethyl)-9-(3-fluorophenyl)-2-(piperazin-1-yl)-9H-purin-6-amine] was run?
Its value is “D (D > 278 nM)”.

`CC(C)n1cnc2c(NCc3ccc(-c4ccccc4)cc3)nc(N3CCNC4(CC4)C3)nc21` [UB-059, N-([1,1′-biphenyl]-4-ylmethyl)-9-isopropyl-2-(4,7-diazaspiro[2.5]octan-7-yl)-9H-purin-6-amine] was tested. Which “Cyclin K IHC data of HepG2 cells” value (Cyclin K) did it give?
The value was “B (31 nM < B <= 93 nM)”.

How did the “Cyclin K IHC data of HepG2 cells” value (Cyclin K) turn out when `CC(C)n1cnc2c(NCc3ccc(-c4ccccc4)cc3)nc(N3C[C@@H](C)N[C@@H](C)C3)nc21` [UB-060, N-([1,1′-biphenyl]-4-ylmethyl)-2-((3R,5S)-3,5-dimethylpiperazin-1-yl)-9-isopropyl-9H-purin-6-amine] was run?
The value was “A (A <= 31 nM)”.
